Laboratory results from US20210108199A1, “Treatment for aggressive cancers by targeting C9ORF72” (The Trustees of Columbia University in the City of New York, priority 2017, published 2021).

What was measured:
LAMP1 = LAMP1 western blot; format: cell-based; details: U87 cells
Description: (§1) For Western blot analysis, cells were lysed with lysis buffer (20 mM sodium phosphate (pH 7.0), 250 mM NaCl, 30 mM sodium pyrophosphate, 0.1% Nonidet™ P-40, 5 mM EDTA, 10 mM NaF, 0.1 mM Na3VO4, and 1 mM PMSF) supplemented with complete protease inhibitors (Roche™) and homogenized by passage through a 28 gauge needle. Protein concentration was measured with a Bio-Rad™ protein assay dye reagent and results were read using a spectrophotometer (BiophotometerPlus™ by Eppendorf™). Protein extracts were resolved by SDS PAGE on gradient (Thermo Fisher™) or 12% gels. Proteins were then electrotransferred at 350 mA for 80 minutes onto a PVDF membrane (Immobilon-P PVDF). Membranes were blocked with PBST with 5% milk and 1% BSA for 30 minutes. Quantitation of blots was performed Image Studio Lite software (LI-COR Biosciences™).
To this end, C9 was knocked down in U87 cells and employed a fluorescent autophagy marker ptfLC3 to mark autophagosomes and autophagolysosomes. […] The white arrows show vacuoles and the white box represents a zoom in of the cell area with vacuoles. […] The white box here represents a zoom in of the cell area with vacuoles, nuclei stained with DAPI (blue). FIG. 4B is a WB showing LAMP1 levels after control (siCtrl) and C9 KD (siC9; SEQ ID NO:631).

U87 cells [1] = assay: Transmission electron microscopy of vacuoles; format: cell-based; details: 72 hours of KD
Description: Since endocytic vacuoles (including macropinosomes) are known to have a single membrane U87 cells treated with control and siC9 siRNA (SEQ ID NO:631) were imaged using transmission electron microscopy (TEM). […] FIG. 13 is a set of representative TEM images of U87 cells treated with Control (siCtrl) and C9 (siC9) siRNA after 72 hours of KD. One asterisk indicates representative vacuoles; two asterisks represent membrane folding. The white boxes in FIG. 13A and FIG. 13B show locations for the digital zoomed-in images below, in FIG. 13C and FIG. 13D. The scale bar represents 5 μm.

[2] = system: RAS/RAC1 signaling pathway; assay: Western blot of RAS, RAC1 and phospho-ERK; format: cell-based; details: U87 cells
Description: as §1
Macropinocytosis is reported to be dependent on RAS and/or RAC1 activation, therefore whether the RAS/RAC1 signaling pathway is activated upon C9 KD was explored. First, RAS and RAC1 protein levels were measured in U87 cells upon C9 KD. […] If the RAS/RAC1 pathway is active, then ERK1/2 phosphorylation should be observed. FIG. 14 is a WB of U87 cells treated with control (siCtrl) and C9 siRNA (siC9; SEQ ID NO:631) measuring protein levels of RAS and phospho-ERK and loading control actin (left) and a WB showing RAC1 levels under the same conditions with actin as loading control (right). […] Therefore both macropinocytosis and RAS/RAC1 signaling pathways are a possible therapeutic targets in C9 ALS.

PARP1 mRNA = assay: qRT-PCR of PARP1 mRNA; format: cell-based; details: U87 cells
Description: For most RNA experiments, RNA was isolated from cells using the Qiagen™ RNeasy minikit. Complementary DNA was generated using the Qiagen™ Quantitect™ reverse transcription kit with 0.5 μg of input RNA as measured with a NanoDrop spectrophotometer (Thermo Scientific™). Real-time PCR was carried out on an ABI StepOne Plus™ machine using power SYBR Green dye (Thermo Scientific™). Transcript levels were assayed in triplicate and normalized to RPL32 and HPS90 mRNAs. Relative changes in cDNA levels were calculated using the comparative Ct method (ΔΔCT method). All RT-qPCR primers were designed with Primer3Plus™ or retrieved from Primerbank™. Primer sequences are listed here, including in Table 3. All primers were purchased from Life Technologies™. H. Generation of p53 Knock Out U87 Cell Lines by CRISPR
Statistical significance was assessed by an unpaired t-test: NS P>0.05, *P≤0.05, **P≤0.01, ***P≤0.001 ****P≤0.0001.

U87 cells [3] = assay: ROS detection by dihydroethidium; format: cell-based; details: day three
Description: ROS detection in U87 cells was performed using 2′,7′-dichlorofluorescin diacetate (Sigma™, D883). Cells were treated with control and siC9 siRNA. After 3 days, cells were washed with phenol red-free DMEM (ThermoFisher™, 21063029). Cells then were incubated with 20 μM DCFDA for 40 minutes at 37° C. Cells then were washed with phenol red-free DMEM. Then signal was read at Ex/Em: 485/535 nm using Synergy H1 Hybrid™ Multi-Mode Microplate reader by Biotek™. Quantitation was done after removal of background. Additionally, dihydroethidium (EMD Millipore™ 309800) was used. U87 cells were treated as described above. At day 3, cells were incubated with DHE for 30 minutes at 37° C. […]
For the above reasons, whether C9 KD may lead to increase ROS production was investigated. […] C9 was knocked down in U87 cells with two independent siRNAs and the ROS levels were measured after KD. […]
For the data presented in FIG. 21, U87 cells were treated with control (siCtrl) and C9 (siC9; SEQ ID NO:631) siRNA and on day three ROS levels measured by DCFDA and dihydroethidium. FIG. 21A presents data for fluorescent intensity between control (siCtrl) and C9 KD (siC9) cells as measured by DCFDA. […] FIG. 21C presents fluorescent intensity quantitation for about 30 cells from the dihydroethidium experiments (n=3). Statistical significance was assessed by an unpaired t-test: NS P>0.05, *P≤0.05, **P≤0.01, ***P≤0.001 ****P≤0.0001. […]

U2OS cells = assay: Western blot of U2OS cells after C9 KD; format: cell-based, human
Description: as §1
See FIG. 28, a WB of U2OS cells treated with control and C9 siRNA and probed for PARP1, p-p53 (s15), p53, p-ERK, p21, p-H2AX, using actin as a loading control.

**Q.** “siC9: siRNA targeting C9 mRNA: UUAAUGAAACAAUAAUCACUC (SEQ ID NO:631; sense) and GUGAUUAUUGUUUCAUUAAUC (SEQ ID NO:632; antisense) (listed as RNA, chemistry not given here)” was tested. Which LAMP1 levels (LAMP1) did it give?
**A.** increased levels

**Q.** What about the “vacuole appearance in TEM” value (U87 cells [1]) of the same substance?
**A.** electron-transparent and had a single membrane

**Q.** What about the RAC1 protein levels [2] of the same substance?
**A.** elevated

**Q.** What about the RAS protein levels [2] of the same substance?
**A.** elevated

**Q.** And the “phosphorylation of ERK1/2” value [2]?
**A.** increased phosphorylation

**Q.** What about the “PARP1 mRNA” value (PARP1 mRNA) of the same substance?
**A.** significant repression

**Q.** And the “ROS (dihydroethidium)” value (U87 cells [3])?
**A.** significant upregulation of ROS

**Q.** And the CDKN1A/p21 protein levels (U2OS cells)?
**A.** increase in CDKN1A/p21 protein levels

**Q.** And the PARP1 level (U2OS cells)?
**A.** PARP1 downregulation

**Q.** What about the p53 levels (U2OS cells) of the same substance?
**A.** increased p53 levels

**Q.** What about the p-ERK (U2OS cells) of the same substance?
**A.** increases in p-ERK

**Q.** And the “phosphorylated p53 (on s15)” value (U2OS cells)?
**A.** increases in phosphorylated p53

**Q.** And the γ-H2AX (U2OS cells)?
**A.** increases
